Assay results published in ChEMBL document CHEMBL1154989, “Towards the second generation of Boceprevir: Dithianes as an alternative P2 substituent for 2,2-dimethyl cycloproyl proline in HCV NS3 protease inhibitors” (Bioorg Med Chem Lett, 2010).
Activity calls are given as the source filed them. No cut-off for these calls is given here.

Experiments:
[1] = Inhibition of HCV NS3/4A serine protease by continuous spectrophotometric assay; parameters: species or system Hepacivirus hominis
[2] = Selectivity for HCV NS3 serine protease over human neutrophil elastase
[3] = AUC in rat at 10 mg/kg, po; format: ADME, organism-based; parameters: dose 10 mg/kg, route oral; details: plasma
Hepatitis C virus = experiment: Antiviral activity against HCV replicon expressing NS3-5 infected in HuH7 cells assessed as inhibition of viral replication after 3 days by ELISA; format: functional, organism-based, Hepacivirus hominis, Huh-7

SMILES | Ki [1] [µM] | Ratio [2] | AUC [3] [nM·h] | EC90 (Hepatitis C virus; Hepatitis C virus, Huh-7, 72 h, read-out: EC90) [µM] | EC90 (Hepatitis C virus; huh-7)
CC(C)(C)NC(=O)N[C@H](C(=O)N1CC2(C[C@H]1C(=O)NC(CC1CC1)C(=O)C(N)=O)SCCS2)C(C)(C)C (stereo not given in full) | 0.3 |  |  |  | 
C=CCNC(=O)C(=O)C(CCCC)NC(=O)[C@@H]1CC2(CN1C(=O)[C@@H](NC(=O)N[C@@H](CN1C(=O)CC(C)(C)CC1=O)C(C)(C)C)C(C)(C)C)SCCS2 (stereo not given in full) | 0.013 | 1500 | 200 |  | 
C=CCNC(=O)C(=O)C(CCC)NC(=O)[C@@H]1CC2(CN1C(=O)[C@@H](NC(=O)N[C@@H](CN1C(=O)CC(C)(C)CC1=O)C(C)(C)C)C1(C)CCCCC1)SCCS2 (stereo not given in full) | 0.006 | 240 | 40 |  | 
C=CCNC(=O)C(=O)C(CC1CC1)NC(=O)[C@@H]1CC2(CN1C(=O)[C@@H](NC(=O)NC1(CS(=O)(=O)C(C)(C)C)CCCCC1)C(C)(C)C)SCCS2 (stereo not given in full) | 0.033 | 40 | 770 |  | 
CC(C)(C)NC(=O)N[C@H](C(=O)N1CC2(C[C@H]1C(=O)NC(CC1CCC1)C(=O)C(N)=O)SCCS2)C(C)(C)C (stereo not given in full) | 0.6 |  |  |  | 
C=CCNC(=O)C(=O)C(CC1CC1)NC(=O)[C@@H]1CC2(CN1C(=O)[C@@H](NC(=O)N[C@@H](CN1C(=O)CC(C)(C)CC1=O)C(C)(C)C)C1(C)CCCCC1)SCCS2 (stereo not given in full) | 0.018 | 200 | 200 |  | 
CC(C)(C)NC(=O)N[C@H](C(=O)N1C[C@H]2[C@@H]([C@H]1C(=O)NC(CC1CCC1)C(=O)C(N)=O)C2(C)C)C(C)(C)C (stereo not given in full) [BOCEPREVIR] | 0.014 |  | 140 | 0.35 | 
C=CCNC(=O)C(=O)C(CC1CC1)NC(=O)[C@@H]1CC2(CN1C(=O)[C@@H](NC(=O)NC(C)(C)C)C(C)(C)C)SCCS2 (stereo not given in full) | 0.7 | inactive |  |  | Not Active
CC(C)(C)NC(=O)N[C@H](C(=O)N1CC2(C[C@H]1C(=O)NC(CC1CCC1)C(=O)C(N)=O)SCCS2)C1CCCCC1 (stereo not given in full) | 0.4 |  |  |  | 
C=CCNC(=O)C(=O)C(CC1CC1)NC(=O)[C@@H]1CC2(CN1C(=O)[C@@H](NC(=O)N[C@@H](C(=O)OC1CC1)C(C)C)C1CCCCC1)SCCS2 (stereo not given in full) | 0.072 | 15 |  |  | 
C=CCNC(=O)C(=O)C(CC1CC1)NC(=O)[C@@H]1CC2(CN1C(=O)[C@@H](NC(=O)NC1(CS(=O)(=O)C(C)(C)C)CCCCC1)C(C)(C)C)SCCCS2 (stereo not given in full) | 0.018 | 130 | 1690 |  | 
C=CCNC(=O)C(=O)C(CCC)NC(=O)[C@@H]1CC2(CN1C(=O)[C@@H](NC(=O)NC1(CS(=O)(=O)C(C)(C)C)CCCCC1)C1(C)CCCCC1)SCCS2 (stereo not given in full) | 0.019 | 10 | 1340 |  | 

Continued by falling Ki [1], values first:

Ki [1] [µM] | Ratio [2] | AUC [3] [nM·h] | EC90 (Hepatitis C virus; Hepatitis C virus, Huh-7, 72 h, read-out: EC90) [µM] | EC90 (Hepatitis C virus; huh-7) | SMILES
0.2 |  |  |  |  | CC(C)(C)NC(=O)N[C@H](C(=O)N1CC2(C[C@H]1C(=O)NC(CC1CC1)C(=O)C(N)=O)SCCS2)C1CCCCC1 (stereo not given in full)
0.084 | 40 |  |  |  | C=CCNC(=O)C(=O)C(CC1CC1)NC(=O)[C@@H]1CC2(CN1C(=O)[C@@H](NC(=O)N[C@@H](C(=O)OC1CC1)C(C)C)C(C)(C)C)SCCS2 (stereo not given in full)
0.021 | 290 |  |  |  | C=CCNC(=O)C(=O)C(CC1CC1)NC(=O)[C@@H]1CC2(CN1C(=O)[C@@H](NC(=O)N[C@@H](CN1C(=O)CC(C)(C)CC1=O)C(C)(C)C)C(C)(C)C)SCCS2 (stereo not given in full)
0.013 | 1700 |  |  |  | C=CCNC(=O)C(=O)C(CCC1CC1)NC(=O)[C@@H]1CC2(CN1C(=O)[C@@H](NC(=O)N[C@@H](CN1C(=O)CC(C)(C)CC1=O)C(C)(C)C)C(C)(C)C)SCCS2 (stereo not given in full)
0.011 | 50 | 570 |  |  | C=CCNC(=O)C(=O)C(CCC)NC(=O)[C@@H]1CC2(CN1C(=O)[C@@H](NC(=O)NC1(CS(=O)(=O)C(C)(C)C)CCCCC1)C(C)(C)C)SCCS2 (stereo not given in full)
0.007 | 128 | 2560 |  |  | C=CCNC(=O)C(=O)C(CCC)NC(=O)[C@@H]1CC2(CN1C(=O)[C@@H](NC(=O)NC1(CS(=O)(=O)C(C)(C)C)CCCCC1)C(C)(C)C)SCCCS2 (stereo not given in full)
0.005 | 630 | 60 |  |  | C=CCNC(=O)C(=O)C(CCC)NC(=O)[C@@H]1CC2(CN1C(=O)[C@@H](NC(=O)N[C@@H](CN1C(=O)CC(C)(C)CC1=O)C(C)(C)C)C(C)(C)C)SCCS2 (stereo not given in full)
